Reference: ChEMBL document CHEMBL4007399, “Discovery and Synthesis of a Phosphoramidate Prodrug of a Pyrrolo[2,1-f][triazin-4-amino] Adenine C-Nucleoside (GS-5734) for the Treatment of Ebola and Emerging Viruses” (J Med Chem, 2017)
pEC50: −log10 of the molar value. Active and inactive are the calls of the source. The rule behind the calls is not given here.

Assays:
Human orthopneumovirus = assay: Antiviral activity against Respiratory syncytial virus A2 infected in human Hep2 cells assessed as reduction of virus-induced cytopathic effect after 4 days by Cell-Titer Glo assay; assay type: functional, cell-based; details: human respiratory syncytial virus, A2, HEp-2, 96 h
Hepatitis C virus = assay: Antiviral activity against Hepatitis C virus genotype 1b infected in human HuH7 cells preincubated with cells for 3 days followed by viral infection by luciferase assay; assay type: functional, cell-based, Hepacivirus hominis
[1] = Cytotoxicity against human Hep2 cells assessed as reduction in cell viability after 4 to 5 days by Cell-Titer Glo assay; assay type: cell-based, HEp-2; details: HEp-2 cells
[2] = (§1) Cytotoxicity against human HuH7 cells assessed as reduction in cell viability after 3 days by calcein-AM dye based fluorescence assay; set-up: species or system Huh-7; details: Huh-7 cells
[3] = Cytotoxicity against human MT4 cells assessed as reduction in cell viability after 4 to 5 days by Cell-Titer Glo assay; assay type: cell-based; details: MT4 cells
Ebolavirus [4] = assay: Antiviral activity against GFP-fused Ebolavirus infected in TERT-immortalized HMVEC assessed as reduction in viral replication preincubated with cells followed by viral infection measured after 3 to 4 days by fluorescence assay; assay type: functional
Ebolavirus [5] = assay: Antiviral activity against Ebolavirus Kikwit infected in human HeLa cells assessed as reduction in viral glycoprotein levels preincubated with cells for 2 hrs followed by viral infection measured after 48 hrs by immunostaining based assay; assay type: functional, cell-based; details: Orthoebolavirus, Kikwit, HeLa
[6] = Lipophilicity, log D of the compound after 30 mins by HPLC/UV method; assay type: physicochemical
Ebolavirus [7] = assay: Antiviral activity against Ebolavirus Kikwit infected in human macrophages preincubated with cells for 2 hrs followed by viral infection measured after 48 hrs; assay type: functional; details: Orthoebolavirus, Kikwit
[8] = (§2) Half life in human plasma at 2 uM by LC/MS/MS analysis; assay type: ADME, cell-free
Ebolavirus [9] = assay: Antiviral activity against Ebolavirus infected in rhesus monkey assessed as reduction in systemic viremia at 3 mg/kg, iv qd administered continuously starting from day 2 post infection for 12 days; assay type: functional, organism-based
Ebolavirus [10] = assay: Antiviral activity against Ebolavirus infected in rhesus monkey assessed as increase in survival at 10 mg/kg, iv administered daily starting from day 3 post infection followed by 3 mg/kg for 11 days measured up to 28 days; assay type: functional, organism-based
Ebolavirus [11] = assay: Antiviral activity against Ebolavirus in phase-1 acute meningoencephalytis patient assessed as viral clearance in plasma at 150 mg, iv qd administered daily for 2 days followed by 225 mg for 14 days; assay type: functional, organism-based
Ebolavirus [12] = assay: Antiviral activity against Ebolavirus in phase-1 acute meningoencephalytis patient assessed as viral clearance in CNS at 150 mg, iv qd administered daily for 2 days followed by 225 mg for 14 days; assay type: functional, organism-based
Ebolavirus [13] = assay: Antiviral activity against Ebolavirus infected in newborn infant assessed as viral clearance; assay type: functional
Huh-7 = assay: as §1; details: huh-7, 72 h, 72 h
Plasma = assay: as §2; assay type: ADME, cell-free; details: 2 µM
[14] = Hepatitis C virus, genotype 1b, Huh-7

SMILES | pEC50 (Human orthopneumovirus) | pEC50 (Hepatitis C virus; [14]) | CC50 [1] [µM] | CC50 at 72 h [2] [µM] | CC50 [3] [µM] | pEC50 (Ebolavirus [4]; Orthoebolavirus, HMVEC) | pEC50 (Ebolavirus [5]) | logD at 0.5 h [6] | half-life at 2 µM [8] [h] | other results
C#C[C@@]1(c2ccc3c(N)ncnn23)O[C@H](CO)[C@@H](O)[C@H]1O | < 3.70 | < 4.06 | > 200 | > 88 | 120 | – | – | – | – | –
C#C[C@@]1(c2ccc3c(N)ncnn23)O[C@H](COP(=O)(N[C@@H](C)C(=O)OCC(CC)CC)Oc2ccccc2)[C@@H](O)[C@H]1O (stereo not given in full) | 5.96 | 5.16 | > 100 | > 44 | > 32 | 5.41 | – | – | – | –
CC(C)OC(=O)[C@H](C)N[P@](=O)(OC[C@H]1O[C@@](C#N)(c2ccc3c(N)ncnn23)[C@](C)(O)[C@@H]1OC(=O)C(C)C)Oc1ccccc1 [GS-6620] | < 4.70 | 6.51 | 95 | 51 | 7.8 | 4.40 | < 4.70 | – | – | –
CCC(CC)COC(=O)[C@@H](C)NP(=O)(OC[C@H]1O[C@@](C#N)(c2ccc3c(N)ncnn23)[C@H](O)[C@@H]1O)Oc1ccccc1 (stereo not given in full) | – | – | – | – | 42 | 6.29 | 6.26 | 2.1 | 26.4 | pEC50 (Ebolavirus [7]): 6.14
CC(C)OC(=O)[C@H](C)NP(=O)(OC[C@H]1O[C@@](C#N)(n2ccc(N)nc2=O)[C@H](O)[C@@H]1O)Oc1ccccc1 (stereo not given in full) | 4.20 | 5.60 | > 100 | > 44 | 53 | – | < 4.70 | – | – | –
C[C@@]1(O)[C@H](O)[C@@H](CO)O[C@@]1(C#N)c1ccc2c(N)ncnn12 | < 4.00 | < 4.36 | > 100 | > 44 | > 57 | < 5.00 | 4.30 | – | – | –
CC(C)OC(=O)[C@H](C)N[P@@](=O)(OC[C@H]1O[C@@](C#N)(c2ccc3c(N)ncnn23)[C@H](O)[C@@H]1O)Oc1ccccc1 | – | – | – | – | 21 | 6.44 | 5.73 | 1.1 | 26 | pEC50 (Ebolavirus [7]): 6.53
N#C[C@@]1(c2ccc3c(N)ncnn23)O[C@H](CO)[C@@H](O)[C@H]1O [GS-441524] | 6.28 | – | > 100 | > 88 | > 57 | 6.11 | < 4.70 | 0.3 | – | pEC50 (Ebolavirus [7]): < 4.70
CCOC(=O)[C@H](Cc1ccccc1)NP(=O)(OC[C@H]1O[C@@](C#N)(c2ccc3c(N)ncnn23)[C@H](O)[C@@H]1O)Oc1ccccc1 (stereo not given in full) | – | – | – | – | 15 | 6.23 | 5.36 | 1.6 | 26.4 | pEC50 (Ebolavirus [7]): 6.57
N#C[C@@]1(n2ccc(N)nc2=O)O[C@H](CO)[C@@H](O)[C@H]1O | 5.14 | 4.92 | > 100 | > 44 | > 57 | < 5.00 | < 4.30 | – | – | –
CCC(CC)OC(=O)[C@H](C)NP(=O)(OC[C@H]1O[C@@](C#N)(c2ccc3c(N)ncnn23)[C@H](O)[C@@H]1O)Oc1ccccc1 (stereo not given in full) | – | – | – | – | > 100 | 6.07 | 5.74 | 1.6 | 14.3 | –
Nc1ncnn2c([C@@H]3O[C@H](CO)[C@@H](O)[C@H]3O)ccc12 | – | 8.46 | 0.038 | 0.15 | < 0.01 | – | – | – | – | –
C[C@H](NP(=O)(OC[C@H]1O[C@@](C#N)(c2ccc3c(N)ncnn23)[C@H](O)[C@@H]1O)Oc1ccccc1)C(=O)OC1CCCC1 (stereo not given in full) | – | – | – | – | 8.8 | 6.80 | 6.20 | 1.3 | 26.3 | pEC50 (Ebolavirus [7]): 6.92
C[C@H](NP(=O)(OC[C@H]1O[C@@](C#N)(c2ccc3c(N)ncnn23)[C@H](O)[C@@H]1O)Oc1ccccc1)C(=O)OC1CCC1 (stereo not given in full) | – | – | – | – | 6 | 7.06 | 6.38 | 1.1 | 13.6 | –
C[C@@]1(c2ccc3c(N)ncnn23)O[C@H](CO)[C@@H](O)[C@H]1O | 5.26 | 4.42 | 93 | 62 | 4.5 | < 5.00 | – | – | – | –
CCC(CC)COC(=O)[C@H](C)N[P@](=O)(OC[C@H]1O[C@@](C#N)(c2ccc3c(N)ncnn23)[C@H](O)[C@@H]1O)Oc1ccccc1 | – | – | – | – | – | – | – | – | – | Activity (Ebolavirus [9]): Active; Activity (Ebolavirus [10]): Active; Activity (Ebolavirus [11]): Active; Activity (Ebolavirus [12]): Active; Activity (Ebolavirus [13]): Active
CCC(CC)COC(=O)[C@H](C)NP(=O)(OC[C@H]1O[C@@](C#N)(c2ccc3c(N)ncnn23)[C@](C)(O)[C@@H]1O)Oc1ccccc1 (stereo not given in full) | < 4.30 | 6.43 | > 50 | > 44 | 1.4 | 4.89 | 4.57 | – | – | –
CCC(CC)COC(=O)[C@H](C)N[P@@](=O)(OC[C@H]1O[C@@](C#N)(c2ccc3c(N)ncnn23)[C@H](O)[C@@H]1O)Oc1ccccc1 | – | – | – | – | – | 7.28 | 7.10 | 2 | – | pEC50 (Ebolavirus [7]): 6.95
CCOC(=O)[C@H](C)NP(=O)(N[C@@H](C)C(=O)OCC)OC[C@H]1O[C@@](C#N)(c2ccc3c(N)ncnn23)[C@H](O)[C@@H]1O | – | – | – | – | > 53 | 5.04 | 4.69 | < 0.3 | – | –
N#C[C@@]1(c2ccc3c(N)ncnn23)O[C@H](CO)[C@@H](O)[C@H]1F | < 4.00 | < 4.36 | – | > 44 | 32 | – | – | – | – | –
C[C@H](NP(=O)(OC[C@H]1O[C@@](C#N)(c2ccc3c(N)ncnn23)[C@H](O)[C@@H]1O)Oc1ccccc1)C(=O)OC(C)(C)C (stereo not given in full) | – | – | – | – | > 100 | 5.42 | 4.52 | 1.3 | 26.4 | –
CCOC(=O)[C@@H](NP(=O)(OC[C@H]1O[C@@](C#N)(c2ccc3c(N)ncnn23)[C@H](O)[C@@H]1O)Oc1ccccc1)C(C)C (stereo not given in full) | – | – | – | – | > 100 | 5.50 | 5.15 | 1.2 | 26.4 | –
C[C@H](N[P@](=O)(OC[C@H]1O[C@@](C#N)(c2ccc3c(N)ncnn23)[C@H](O)[C@@H]1O)Oc1ccccc1)C(=O)OCC(C)(C)C | – | – | – | – | 3 | 7.04 | 6.77 | 1.7 | 11.7 | –
CCC(CC)COC(=O)[C@H](C)N[P@](=O)(OC[C@H]1O[C@@](C#N)(c2ccc3c(N)ncnn23)[C@H](O)[C@@H]1O)Oc1ccccc1 (mixture of isomers) | 7.57 | – | 9.2 | – | 2 | – | 6.77 | 2.1 | – | pEC50 (Ebolavirus [4]): 6.92; pEC50 (Hepatitis C virus): 7.64; CC50 (Huh-7): 17 µM; pEC50 (Ebolavirus [7]): 7.00; t1/2 (Plasma): 3.25 h
CCOC(=O)[C@H](C)NP(=O)(OC[C@H]1O[C@@](C#N)(c2ccc3c(N)ncnn23)[C@H](O)[C@@H]1O)Oc1ccccc1 (stereo not given in full) | – | – | – | – | 13 | 6.20 | 5.62 | 0.6 | 26.4 | –
N#C[C@@]1(n2cnc3c(N)ncnc32)O[C@H](CO)[C@@H](O)[C@H]1O | < 4.00 | < 4.36 | > 100 | > 88 | > 53 | 4.25 | – | – | – | –
